Literature values, collected in US20060270610A1, “Novel compounds for hypoxic cell therapy and imaging” (priority 2005, published 2006).
Read-outs that look alike come from different tables or passages of the source. One block for each molecule: values may come before it.

Tests used:
[1] = molecular target: T1, NBMPR (nitrobenzylthioinosine)-sensitive equilibrative nucleoside transporter (Homo sapiens, UniProt Q99808); conditions: in vitro, erythrocytes
T1 construct: equilibrative nucleoside transporter in erythrocytes; endogenous in cells
T1 sequence (Q99808 1-456): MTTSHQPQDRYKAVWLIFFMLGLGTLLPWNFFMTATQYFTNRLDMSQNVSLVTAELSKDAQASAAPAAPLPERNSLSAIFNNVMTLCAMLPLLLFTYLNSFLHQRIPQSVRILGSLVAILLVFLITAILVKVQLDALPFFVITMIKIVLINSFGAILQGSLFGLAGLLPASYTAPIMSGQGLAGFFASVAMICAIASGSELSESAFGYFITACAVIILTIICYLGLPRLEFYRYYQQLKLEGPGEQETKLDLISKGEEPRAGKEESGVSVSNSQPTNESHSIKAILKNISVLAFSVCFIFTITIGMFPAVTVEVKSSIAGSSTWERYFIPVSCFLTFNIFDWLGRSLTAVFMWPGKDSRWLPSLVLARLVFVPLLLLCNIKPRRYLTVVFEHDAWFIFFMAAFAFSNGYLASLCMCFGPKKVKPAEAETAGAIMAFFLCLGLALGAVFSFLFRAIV

murine tumor models = conditions: three different murine tumor models; greater than [18F]FMISO
[2] = rats, via the renal system; compared with [18F]FMISO

Structure (SMILES): OC[C@H]1OC(O)[C@H]([18F])[C@@H](O)[C@@H]1O (stereo partly drawn) [[^18F]FDG]
uptake in normal brain tissue (human, in vivo): taken up as a reflection of glucose metabolism in healthy brain

Structure (SMILES): O=[N+]([O-])c1nccn1CC(O)C[18F] (stereo not drawn) [[^18F]FMISO]
uptake in normal brain tissue (human, in vivo): taken up non-specifically by brain

Structure (SMILES): O=[N+]([O-])c1nccn1[C@H]1O[C@H](CI)[C@@H](O)[C@@H]1O [IAZA, 1-α-D-(5-dexoy-5-iodorabinofuranosyl)-2-nitroimidazole]
transport by NBMPR-sensitive equilibrative nucleoside transporter [1]: not transported

uptake in normal brain tissue (patients studied sequentially): absence of [^18F] 1-α-D-FAZA uptake
clearance from blood, viscera and muscle tissue [2]: faster clearance
Structure (SMILES): O=[N+]([O-])c1nccn1[C@H]1O[C@H](C[18F])[C@@H](O)[C@@H]1O [[^18F] 1-α-D-FAZA]
tumor:blood ratios relative to [18F]FMISO (murine tumor models): 2-4 times
